Measured values: patent US20100267561A1, “HERBICIDAL PYRIDAZINONE DERIVATIVES” (priority 2007, published 2010)
Where two headings read alike, the source gives them in different places.

Columns and labels:
Test in all cases: Test B pre-/postemergence plant response
Assay type in all cases: in vivo
kochia (Kochia scoparia) = conditions: scale 0 to 100
Text: (§1) Seeds of plant species selected from blackgrass (Alopecurus myosuroides), downy bromegrass (Bromus tectorum), green foxtail (Setaria viridis), Italian ryegrass (Lolium multiflorum), wheat (Triticum aestivum), wild oat (Avena fatua), catchweed bedstraw (Galium aparine), bermudagrass (Cynodon dactylon), surinam grass (Brachiaria decumbens), cocklebur (Xanthium strumarium), corn (Zea mays), large crabgrass (Digitaria sanguinalis), woolly cupgrass (Eriochloa villosa), giant foxtail (Setaria faberii), goosegrass (Eleusine indica), johnsongrass (Sorghum halepense), kochia (Kochia scoparia), lambsquarters (Chenopodium album), morningglory (Ipomoea coccinea), eastern black (E.B.) nightshade (Solanum ptycanthum), yellow nutsedge (Cyperus esculentus), pigweed (Amaranthus retroflexus), common ragweed (Ambrosia elation), Russian thistle (Salsola iberica), soybean (Glycine max), common (oilseed) sunflower (Helianthus annuus), and velvetleaf (Abutilon theophrasti) were planted and treated preemergence with test chemicals formulated in a non-phytotoxic solvent mixture which included a surfactant.
(§2) At the same time, plants selected from these crop and weed species and also winter barley (Hordeum vulgare), canarygrass (Phalaris minor), chickweed (Stellaria media) and windgrass (Apera spica-venti) were treated with postemergence applications of some of the test chemicals formulated in the same manner. Plants ranged in height from 2 to 18 cm (1- to 4-leaf stage) for postemergence treatments.
(§3) Plant species in the flooded paddy test consisted of rice (Oryza sativa), umbrella sedge (Cyperus difformis), ducksalad (Heteranthera limosa) and barnyardgrass (Echinochloa crus-galli) grown to the 2-leaf stage for testing. At time of treatment, test pots were flooded to 3 cm above the soil surface, treated by application of test compounds directly to the paddy water, and then maintained at that water depth for the duration of the test. Treated plants and controls were maintained in a greenhouse for 13 to 15 days, after which time all species were compared to controls and visually evaluated. Plant response ratings, summarized in Table B, are based on a scale of 0 to 100 where 0 is no effect and 100 is complete control. A dash (-) response means no test result.

[1] = test system: morningglory (Ipomoea coccinea); conditions: Ipomoea, read-out: Plant response rating, Morningglory; for pest or weed control at 62 g/ha: 62 g ai/ha; for pest or weed control at 62 g/ha / pest or weed control at 125 g/ha / pest or weed control at 250 g/ha: scale 0 to 100; for pest or weed control at 125 g/ha: 125 g ai/ha; for pest or weed control at 250 g/ha: 250 g ai/ha
Text: as §1, §2, §3

[2] = test system: pigweed (Amaranthus retroflexus); conditions: Amaranthus retroflexus, read-out: Plant response rating, Pigweed; for pest or weed control at 62 g/ha: 62 g ai/ha; for pest or weed control at 62 g/ha / pest or weed control at 125 g/ha / pest or weed control at 250 g/ha: scale 0 to 100; for pest or weed control at 125 g/ha: 125 g ai/ha; for pest or weed control at 250 g/ha: 250 g ai/ha
Text: as §1, §2, §3

soybean (Glycine max) = conditions: Glycine max, read-out: Plant response rating, Soybean; for plant injury at 31 g/ha: 31 g ai/ha, 100 complete control; for plant injury at 250 g/ha: 250 g ai/ha
Text: as §1, §2, §3

[3] = test system: surinam grass (Brachiaria decumbens); conditions: Urochloa decumbens, read-out: Plant response rating, Surinam Grass; for pest or weed control at 31 g/ha: 31 g ai/ha, 100 complete control; for pest or weed control at 62 g/ha: 62 g ai/ha; for pest or weed control at 62 g/ha / pest or weed control at 125 g/ha / pest or weed control at 250 g/ha: scale 0 to 100; for pest or weed control at 125 g/ha: 125 g ai/ha; for pest or weed control at 250 g/ha: 250 g ai/ha
Text: as §1, §2, §3

[4] = test system: velvetleaf (Abutilon theophrasti); conditions: Abutilon theophrasti, read-out: Plant response rating, Velvetleaf; for pest or weed control at 31 g/ha: 31 g ai/ha, 100 complete control; for pest or weed control at 62 g/ha: 62 g ai/ha; for pest or weed control at 62 g/ha / pest or weed control at 125 g/ha / pest or weed control at 250 g/ha: scale 0 to 100; for pest or weed control at 125 g/ha: 125 g ai/ha; for pest or weed control at 250 g/ha: 250 g ai/ha
Text: as §1, §2, §3

[5] = test system: woolly cupgrass (Eriochloa villosa); conditions: Eriochloa villosa, read-out: Plant response rating, Cupgrass, Woolly; for pest or weed control at 31 g/ha: 31 g ai/ha, 100 complete control; for pest or weed control at 62 g/ha: 62 g ai/ha; for pest or weed control at 62 g/ha / pest or weed control at 125 g/ha / pest or weed control at 250 g/ha: scale 0 to 100; for pest or weed control at 125 g/ha: 125 g ai/ha; for pest or weed control at 250 g/ha: 250 g ai/ha
Text: as §1, §2, §3

[6] = post-emergence, Postemergence, scale 0 to 100, 0 no effect
[7] = pre-emergence, Preemergence, 0 to 100 scale, 0 no effect

SMILES: Cc1cc(-c2ccc(C(F)(F)F)cc2)nn1-c1c(O)cnn(C)c1=O [Compound 1, 5-hydroxy-2-methyl-4-[5-methyl-3-[4-(trifluoromethyl)phenyl]-1H-pyrazol-1-yl]-3(2H)-pyridazinone]
- Plant response rating, Kochia (kochia (Kochia scoparia); Postemergence, 250 g ai/ha): 20
- Plant response rating, Kochia (kochia (Kochia scoparia); Preemergence, 62 g ai/ha): 0
- Plant response rating, Kochia (kochia (Kochia scoparia); Preemergence, 125 g ai/ha): 20
- pest or weed control at 62 g/ha ([1]; post-emergence, Postemergence): 0%
- pest or weed control at 125 g/ha ([1]; post-emergence, Postemergence): 0%
- pest or weed control at 250 g/ha ([1]; post-emergence, Postemergence): 0%
- pest or weed control at 31 g/ha ([1]; pre-emergence, Preemergence, 31 g ai/ha, 0 to 100 scale, 0 no effect, 100 complete control): 0%
- pest or weed control at 62 g/ha ([1]; pre-emergence, Preemergence): 0%
- pest or weed control at 125 g/ha ([1]; pre-emergence, Preemergence): 0%
- pest or weed control at 250 g/ha ([1]; pre-emergence, Preemergence): 0%
- pest or weed control at 31 g/ha ([2]; post-emergence, Postemergence, 31 g ai/ha, scale 0 to 100, 0 no effect, 100 complete control): 0%
- pest or weed control at 62 g/ha ([2]; post-emergence, Postemergence): 0%
- pest or weed control at 125 g/ha ([2]; post-emergence, Postemergence): 0%
- pest or weed control at 250 g/ha ([2]; post-emergence, Postemergence): 40%
- pest or weed control at 62 g/ha ([2]; pre-emergence, Preemergence): 0%
- pest or weed control at 125 g/ha ([2]; pre-emergence, Preemergence): 0%
- pest or weed control at 250 g/ha ([2]; pre-emergence, Preemergence): 0%
- plant injury at 31 g/ha (soybean (Glycine max); [6]): 0%
- plant injury at 62 g/ha (soybean (Glycine max); post-emergence, Postemergence, 62 g ai/ha, scale 0 to 100): 25%
- plant injury at 125 g/ha (soybean (Glycine max); post-emergence, Postemergence, 125 g ai/ha, scale 0 to 100): 50%
- plant injury at 250 g/ha (soybean (Glycine max); post-emergence, Postemergence, scale 0 to 100): 60%
- plant injury at 31 g/ha (soybean (Glycine max); [7]): 0%
- plant injury at 250 g/ha (soybean (Glycine max); pre-emergence, Preemergence, scale 0 to 100): 0%
- pest or weed control at 31 g/ha [3, 6]: 100%
- pest or weed control at 62 g/ha ([3]; post-emergence, Postemergence): 100%
- pest or weed control at 125 g/ha ([3]; post-emergence, Postemergence): 100%
- pest or weed control at 250 g/ha ([3]; post-emergence, Postemergence): 100%
- pest or weed control at 31 g/ha [3, 7]: 100%
- pest or weed control at 62 g/ha ([3]; pre-emergence, Preemergence): 100%
- pest or weed control at 125 g/ha ([3]; pre-emergence, Preemergence): 100%
- pest or weed control at 250 g/ha ([3]; pre-emergence, Preemergence): 100%
- pest or weed control at 31 g/ha [4, 6]: 0%
- pest or weed control at 62 g/ha ([4]; post-emergence, Postemergence): 0%
- pest or weed control at 125 g/ha ([4]; post-emergence, Postemergence): 0%
- pest or weed control at 250 g/ha ([4]; post-emergence, Postemergence): 50%
- pest or weed control at 31 g/ha [4, 7]: 0%
- pest or weed control at 62 g/ha ([4]; pre-emergence, Preemergence): 0%
- pest or weed control at 125 g/ha ([4]; pre-emergence, Preemergence): 0%
- pest or weed control at 250 g/ha ([4]; pre-emergence, Preemergence): 50%
- pest or weed control at 31 g/ha [5, 6]: 95%
- pest or weed control at 62 g/ha ([5]; post-emergence, Postemergence): 100%
- pest or weed control at 125 g/ha ([5]; post-emergence, Postemergence): 100%
- pest or weed control at 250 g/ha ([5]; post-emergence, Postemergence): 100%
- pest or weed control at 31 g/ha [5, 7]: 85%
- pest or weed control at 62 g/ha ([5]; pre-emergence, Preemergence): 100%
- pest or weed control at 125 g/ha ([5]; pre-emergence, Preemergence): 100%
- pest or weed control at 250 g/ha ([5]; pre-emergence, Preemergence): 100%
